Read-outs that look alike come from different tables or passages of the source.
Legend:
[1] = tested on: HTT; test: HiBiT protein abundance assay, HTT (K562 HiBiT knock-in); format: cell-based, human; conditions: HiBiT knock-in K562 cells, 24 hours, top dose 10 μM
Procedure: (§1) Compounds described herein were used to screen for effects on quantitative protein abundance using a HiBit assay system (Promega). Quantitative protein abundance was determined by measuring the protein levels of HiBit-tagged protein targets expressed in cell culture via luminescence using the Nano-Glo HiBiT Lytic Detection System, which uses a split complementation assay format to reconstitute NanoBiT enzyme to generate a luminescent signal. A protein abundance assay was developed such that endogenous protein targets could be modified with the HiBiT peptide tag and their abundance could be assessed after compound treatment. Briefly, K562 cell lines containing a HiBiT-modification were treated with various compounds described herein (e.g., compounds of Formulas (I), or (II)). After treatment for 24 hours, the protein abundance of a specific target was determined by measuring luminescence.
(§2) Cells were maintained in IMIDM with 10% FBS. Before the assay, cells were diluted with […] growth media (IMIDM+[…] media) and were seeded in a 384-well plate at a density of 10000 cells/well (for each cell line listed in Table 6). Each compound was prepared as a 10-point 3-fold serial dilution in DMSO with the top dose at a final concentration of 10 μM in the well. Unmodified K562 cells were added at the previously specified density with DMSO to serve as an assay baseline and positive control (PC) and DMSO only with the respective modified cell lines was added to the negative control (NC) columns. Final DMSO concentration was kept at or below 0.25%. Treated cell plates were placed in an incubator at 37° C. with […] for 24 hours. After 24 hours, 25 μL of Complete HiBit Lytic reagent was added to each well at room temperature (e.g. one plate requiring 10 mL Lytic Buffer, 100 μL LgBiT Protein, 200 μL Lytic Substrate), shaken for 5 minutes at 600 RPM, then left to sit for 10 minutes for signal to stabilize before reading on a Spark Cyto plate reader (Tecan) with a 500 ms measurement time.
(§3) To determine compound effects on protein abundance of each target in Table 6, the percent response for each respective cell line was calculated at each compound concentration as follows:
(§4) % response=100*(S−PC)(NC−PC)
(§5) For the normalized response at each concentration, a four-parameter logistical regression was fit to the data and the response was interpolated at the […] to determine a concentration for protein abundance at 50% (IC50) the untreated control.

[2] = tested on: Target C; test: HiBiT protein abundance assay, Target C (K562 HiBiT knock-in); format: cell-based, human; conditions: HiBiT knock-in K562 cells, 24 hours, top dose 10 μM
Procedure: as §2, §3, §4, §5

[3] = tested on: MYB mRNA; test: RT-qPCR splicing assay, MYB mRNA canonical (CJ) and alternative (AJ) junction; format: cell-based, human; conditions: Homo sapiens
Procedure: (§6) Compounds described herein were used to modulate RNA transcript abundance in cells. The expression of a target mRNA was measured by detecting the formation of an exon-exon junction in the canonical transcript (CJ). A compound mediated exon-inclusion event was detected by observing an increase in formation of a new junction with an alternative exon (AJ). Real-time qPCR assays were used to detect these splicing switches and interrogate the potency of various compounds towards different target genes. A high-throughput real time quantitative PCR (RT-qPCR) assay was developed to measure these two isoforms of the mRNA (CJ and AJ) for exemplary genes, such as HTT, SMN2, and MYB, together with a control housekeeping gene, GAPDH or GUSB or PPIA, used for normalization. Briefly, the A673 or K562 cell line was treated with various compounds described herein (e.g., compounds of Formula (I)). After treatment, the levels of the HTT, MYB, or SMN2 mRNA targets were determined from each sample of cell lysate by cDNA synthesis followed by qPCR.
(§7) The A673 cell line was cultured in DMEM with 10% FBS. Cells were diluted with full growth media and plated in a 96-well plate (15,000 cells in 100 ul media per well). The plate was incubated at 37° C. with 5% CO2 for 24 hours to allow cells to adhere. An 11-point 3-fold serial dilution of the compounds was made in DMSO then diluted in media in an intermediate plate. Compounds were transferred from the intermediate plate to the cell plate with the top dose at a final concentration of 10 uM in the well. Final DMSO concentration was kept at or below 0.25%. The cell plate was returned to the incubator at 37° C. with 5% CO2 for an additional 24 hours.
(§8) The K562 cell line was cultured in IMDM with 10% FBS. For K562, cells were diluted with full growth media and plated in either a 96-well plate (50,000 cells in 50 uL media per well) or a 384-well plate (8,000-40,000 cells in 45 uL media per well). An 11-point 3-fold serial dilution of the compounds were made in DMSO then diluted in media in an intermediate plate. Compound was transferred from the intermediate plate to the cell plate with the top dose at a final concentration of 10 uM in the well. Final DMSO concentration was kept at or below 0.25%. Final volume was 100 uL for 96-well plate and 50 uL for 384-well plate. The cell plate was then placed in an incubator at 37° C. with 5% CO2 for 24 hours.
(§9) The cells were then gently washed with 50 uL-100 uL cold PBS before proceeding to addition of lysis buffer. 30 uL-50 μL of room temperature lysis buffer with DNAse I (and optionally RNAsin) was added to each well. Cells were shaken/mixed thoroughly at room temperature for 5-10 minutes for lysis to take place and then 3 uL-5 μL of room temperature stop solution was added and wells were shaken/mixed again. After 2-5 minutes, the cell lysate plate was transferred to ice for RT-qPCR reaction setup. The lysates could also be frozen at −80° C. for later use.
(§10) In some cases, a direct lysis buffer was used. An appropriate volume of 3× lysis buffer (10 mM Tris, 150 mM NaCl, 1.5%-2.5% Igepal and 0.1-1 U/uL RNAsin, pH 7.4) was directly added to either K562 or A673 cells in media and mixed by pipetting 3 times. The plates were then incubated at room temperature with shaking/rocking for 20-50 minutes to allow for lysis to take place. After this time, the cell lysate plate was transferred to ice to set up for the RT-qPCR reactions. The lysates could also be frozen at −80° C. for later use.
(§11) To set up 10 uL RT-qPCR reactions, cell lysates were transferred to 384-well qPCR plates containing the master mix according to the table below. The plates were sealed, gently vortexed, and spun down before the run. The volumes were adjusted accordingly in some instances where the reaction was carried in 20 μL. The table below summarizes the components of the RT-qPCR reactions:
(§12) The RT-qPCR reaction was performed using a QuantStudio (ThermoFisher) under the following fast cycling conditions. […]

[4] = tested on: MYB; test: HiBiT protein abundance assay, MYB (K562 HiBiT knock-in); format: cell-based, human; conditions: HiBiT knock-in K562 cells, 24 hours, top dose 10 μM
Procedure: as §1, §2, §3, §4, §5

[5] = tested on: SMN2 mRNA; test: RT-qPCR splicing assay, SMN2 mRNA; format: cell-based, human; conditions: Homo sapiens, canonical junction qPCR panel, Table 4; read-out: SMN2 IC50 (decrease in CJ mRNA levels)
Procedure: as §6, §7, §8, §9, §10, §11, §12

[6] = tested on: HTT mRNA; test: RT-qPCR splicing assay, HTT mRNA canonical (CJ) and alternative (AJ) junction; format: cell-based, human; conditions: Homo sapiens
Procedure: as §6, §7, §8, §9, §10, §11, §12

[7] = tested on: K562 cells; test: Cell Titer Glo 2.0 cell viability (toxicity) assay, K562; conditions: 500 cells/well, 72 hours
[8] = MYB alternative junction mRNA, RT-qPCR, read-out: MYB AJ (increase in AJ mRNA, AC50)
[9] = MYB canonical junction mRNA, RT-qPCR, read-out: MYB CJ (decrease in CJ mRNA levels, IC50)
[10] = canonical junction qPCR panel, Table 4, read-out: MYB IC50 (decrease in CJ mRNA levels)
[11] = HTT alternative junction mRNA, RT-qPCR, read-out: HTT AJ (increase in AJ mRNA, AC50)
[12] = HTT canonical junction mRNA, RT-qPCR, read-out: HTT CJ (decrease in CJ mRNA levels, IC50)
[13] = canonical junction qPCR panel, Table 4, read-out: HTT IC50 (decrease in CJ mRNA levels)
[14] = RT-qPCR, MYB alternative junction mRNA increase, read-out: MYB AJ (increase in alternative junction mRNA, AC50)
[15] = RT-qPCR, MYB canonical junction mRNA decrease, read-out: MYB CJ (decrease in canonical junction mRNA, IC50)
[16] = RT-qPCR, HTT alternative junction mRNA increase, read-out: HTT AJ (increase in alternative junction mRNA, AC50)
[17] = RT-qPCR, HTT canonical junction mRNA decrease, read-out: HTT CJ (decrease in canonical junction mRNA, IC50)

SMILES: Cc1cn2cc(-c3ccc4nc(C5CCNCC5)ccc4n3)c(O)c(C)c2n1 [Compound 151]
- IC50 [1]: 100 to 1000 nM
- IC50 [2]: 100 to 1000 nM
- AC50 [3, 8]: 100 to 1000 nM
- IC50 [3, 9]: 100 to 1000 nM
- IC50 [3, 10]: 100 to 1000 nM
- IC50 [4]: 100 to 1000 nM
- IC50 [5]: 100 to 1000 nM
- AC50 [6, 11]: 100 to 1000 nM
- IC50 [6, 12]: 100 to 1000 nM
- IC50 [6, 13]: 100 to 1000 nM

SMILES: Cn1cc2cc(-c3ccc4cc(C5CCNCC5)ccc4n3)c(O)c(F)c2n1 [Compound 241]
- IC50 [1]: < 100 nM
- IC50 [2]: < 100 nM
- Effect of Exemplary Compounds on Cell Viability, K562 [7]: A (A represents <100 nM)
- AC50 [3, 8]: < 100 nM
- IC50 [3, 9]: < 100 nM
- IC50 [4]: < 100 nM
- AC50 [6, 11]: < 100 nM
- IC50 [6, 12]: < 100 nM

SMILES: CNC(=O)c1nc(-c2cc3cn(C)nc3c(C)c2O)nc2ccc(N3CCNCC3)cc12 [Compound 501, 2-(6-hydroxy-2,7-dimethylindazol-5-yl)-N-methyl-6-(piperazin-1-yl)quinazoline-4-carboxamide]
- IC50 [1]: 100 to 1000 nM
- IC50 [2]: 100 to 1000 nM
- Effect of Exemplary Compounds on Cell Viability, K562 [7]: A (A represents <100 nM)
- IC50 [4]: < 100 nM

SMILES: Cc1nc2c(F)cc(-c3ncc4cc(N5C[C@@H](C)N[C@@H](C)C5)ccc4n3)cn2c1F [Compound 837, 2-{3,8-difluoro-2-methylimidazo[1,2-a]pyridin-6-yl}-6-[(3R,5S)-3,5-dimethylpiperazin-1-yl]quinazoline]
- Effect of Exemplary Compounds on Cell Viability, K562 [7]: C (C represents 1000-9999 nM)
- AC50 [3, 14]: 1000 to 10000 nM
- IC50 [3, 15]: 1000 to 10000 nM
- IC50 [3, 10]: 1000 to 10000 nM
- IC50 [5]: 100 to 1000 nM
- AC50 [6, 16]: 1000 to 10000 nM
- IC50 [6, 17]: 100 to 1000 nM
- IC50 [6, 13]: 100 to 1000 nM

SMILES: COc1nc(-c2ncc3cc(N4C[C@@H](C)N[C@@H](C)C4)ccc3n2)cn2cc(C)nc12 [Compound 838]
- Effect of Exemplary Compounds on Cell Viability, K562 [7]: C (C represents 1000-9999 nM)
- AC50 [3, 14]: 100 to 1000 nM
- IC50 [3, 15]: 100 to 1000 nM
- IC50 [3, 10]: 100 to 1000 nM
- IC50 [5]: < 100 nM
- AC50 [6, 16]: > 10000 nM
- IC50 [6, 17]: > 10000 nM
- IC50 [6, 13]: > 10000 nM

SMILES: C[C@H]1CN(c2ccc3nc(-c4cc(F)c5nn(C)c(F)c5c4)ncc3c2)C[C@H](C)N1 [Compound 924]
- Effect of Exemplary Compounds on Cell Viability, K562 [7]: C (C represents 1000-9999 nM)
- AC50 [3, 14]: 1000 to 10000 nM
- IC50 [3, 15]: 1000 to 10000 nM
- IC50 [3, 10]: 1000 to 10000 nM
- IC50 [5]: 100 to 1000 nM
- AC50 [6, 16]: 1000 to 10000 nM
- IC50 [6, 17]: > 10000 nM
- IC50 [6, 13]: > 10000 nM

SMILES: C[C@@H]1CN(c2ccc3nc(-c4cc(F)c5nn(C)c(F)c5c4)ncc3c2)C[C@H](C)N1 [Compound 925]
- Effect of Exemplary Compounds on Cell Viability, K562 [7]: C (C represents 1000-9999 nM)
- AC50 [3, 14]: 1000 to 10000 nM
- IC50 [3, 15]: 1000 to 10000 nM
- IC50 [3, 10]: 1000 to 10000 nM
- IC50 [5]: 100 to 1000 nM
- AC50 [6, 16]: 100 to 1000 nM
- IC50 [6, 17]: 1000 to 10000 nM
- IC50 [6, 13]: 1000 to 10000 nM
